target: fully phosphorylated, active Mouse ERK2 protein (Mus musculus (Mouse), UniProt P63085); experiment: Active ERK2 (aERK) IMAP assay; type: biochemical; conditions: IMAP fluorescence polarization; 30 μM ATP; 30 minute pre-incubation
Experimental: 14 μl of kinase buffer (10 mM Tris.HCl pH 7.2, 10 mM MgCl2, 0.01% Tween-20, 1 mM DTT) containing 0.4 ng unphosphorylated Mouse ERK2 protein was added to each well of a black 384-well assay plate. […] DMSO concentration during initial incubation is 6.7%. […] DMSO concentration during ERK activation was 4%. After one hour, reactions were terminated by addition of 60 μl IMAP detections beads in binding buffer (Molecular Devices). Binding was allowed to equilibrate for 30 minutes before reading the plate on an LJL Analyst Fluorescence Polarization plate reader.
Active ERK2 (aERK) Assay:
Activated ERK2 activity was also determined in the IMAP assay format using the procedure outlined above. […] Reactions proceeded for 30 minutes before termination by addition of 60 μl IMAP detection beads in binding buffer. Plates were read as above after 30 minute binding equilibration.

Chain of fully phosphorylated, active Mouse ERK2 protein (P63085 whole entry): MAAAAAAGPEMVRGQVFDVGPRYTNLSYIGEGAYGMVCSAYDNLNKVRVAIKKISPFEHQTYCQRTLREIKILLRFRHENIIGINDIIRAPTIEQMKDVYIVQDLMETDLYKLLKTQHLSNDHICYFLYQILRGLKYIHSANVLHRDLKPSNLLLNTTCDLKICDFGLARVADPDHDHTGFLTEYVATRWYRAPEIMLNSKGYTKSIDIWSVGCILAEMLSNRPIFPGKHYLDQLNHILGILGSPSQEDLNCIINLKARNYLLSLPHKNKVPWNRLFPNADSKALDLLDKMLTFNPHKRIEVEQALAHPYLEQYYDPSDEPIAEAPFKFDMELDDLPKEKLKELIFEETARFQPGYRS

Row | Structure (SMILES) | IC50
1 | Cc1cc(-c2n[nH]c3ccc(C(=O)NN4CCCC(CO)(Oc5ccc(F)cc5)C4)cc23)ccn1 (centres unmarked) [compound 148, N-[3-(4-fluorophenoxy)-3-(hydroxymethyl)-1-piperidinyl]-3-(2-methyl-4-pyridinyl)-1H-indazole-5-carboxamide] | 445 nM
2 | COc1cccc(F)c1C[C@@]1(O)CCC[C@@H](NC(=O)c2ccc3[nH]nc(-c4ccc5nccn5c4)c3c2)C1 [compound 23, N-[3(S)-[(2-fluoro-6-methoxyphenyl)methyl]-3-hydroxy-1(R)-cyclohexyl]-3-imidazo[1,2-a]pyridin-6-yl-1H-indazole-5-carboxamide] | 2.2 nM
3 | Cc1cc(-c2n[nH]c3ccc(C(=O)NC4CCCC(Cn5cnc6cccnc65)C4)cc23)ccn1 (centres unmarked) [compound 118, N-[3-(3H-imidazo[4,5-b]pyridin-3-ylmethyl)cyclohexyl]-3-(2-methyl-4-pyridinyl)-1H-indazole-5-carboxamide] | 60.8 nM
4 | Cc1cc(-c2n[nH]c3ccc(C(=O)NC4CCCC(Oc5ccc(F)cc5F)C4)cc23)ccn1 (single isomer, unassigned) [compound 37, N-[3-(2,4-difluorophenoxy)cyclohexyl]-3-(2-methyl-4-pyridinyl)-1H-indazole-5-carboxamide] | 128 nM
5 | Cn1cc2cc(-c3n[nH]c4ccc(C(=O)NC5CCCC(Cn6cnc7ccccc76)C5)cc34)ccc2n1 (centres unmarked) [compound 109, N-[3-(1H-benzimidazol-1-ylmethyl)cyclohexyl]-3-(2-methyl-2H-indazol-5-yl)-1H-indazole-5-carboxamide] | 21.1 nM
6 | Cc1cc(-c2n[nH]c3ccc(C(=O)NC4CCCC(CO)(Cc5ccc(F)cc5F)C4)cc23)ccn1 (centres unmarked) [compound 134, N-[3-[(2,4-difluorophenyl)methyl]-3-(hydroxymethyl)cyclohexyl]-3-(2-methyl-4-pyridinyl)-1H-indazole-5-carboxamide] | 436 nM
7 | CC(C)Oc1cc(-c2n[nH]c3ccc(C(=O)N[C@@H]4CCC[C@](O)(Cc5ccccc5F)C4)cc23)ccn1 [compound 16, N-[3(S)-[(2-fluorophenyl)methyl]-3-hydroxy-1(R)-cyclohexyl]-3-[2-(1-methylethoxy)-4-pyridinyl]-1H-indazole-5-carboxamide] | 301 nM
8 | COc1cccc(F)c1C[C@@]1(O)CCC[C@@H](NC(=O)c2ccc3[nH]nc(-c4ccnc(OC(C)C)c4)c3c2)C1 [compound 25, N-[3(S)-[(2-fluoro-6-methoxyphenyl)methyl]-3-hydroxy-1(R)-cyclohexyl]-3-[2-(1-methylethoxy)-4-pyridinyl]-1H-indazole-5-carboxamide] | 333 nM
9 | O=C(NC1CCCC(O)(Cc2ccccc2F)C1)c1ccc2[nH]nc(-c3ccc4ncsc4c3)c2c1 (single isomer, unassigned) [compound 11, 3-(6-benzothiazolyl)-N-[3-[(2-fluorophenyl)methyl]-3-hydroxycyclohexyl]-1H-indazole-5-carboxamide] | 264 nM
10 | Cc1cc(-c2n[nH]c3ccc(C(=O)NC4CCCC(Cn5ncc6ccc(C(F)(F)F)cc65)C4)cc23)ccn1 (mixture of isomers) [compound 125, 3-(2-methyl-4-pyridinyl)-N-[cis/trans-3-[[6-(trifluoromethyl)-1H-indazol-1-yl]methyl]cyclohexyl]-1H-indazole-5-carboxamide] | 1000 nM
11 | Cc1cc(-c2n[nH]c3ccc(C(=O)NC4CCCC(Oc5ccccc5Cl)C4)cc23)ccn1 (single isomer, unassigned) [compound 34, N-[3-(2-chlorophenoxy)cyclohexyl]-3-(2-methyl-4-pyridinyl)-1H-indazole-5-carboxamide] | 198 nM
12 | Cc1cc(-c2n[nH]c3ccc(C(=O)NC4CCCC(Cn5cc6cccnc6n5)C4)cc23)ccn1 (centres unmarked) [compound 113, 3-(2-methyl-4-pyridinyl)-N-[3-(2H-pyrazolo[3,4-b]pyridin-2-ylmethyl)cyclohexyl]-1H-indazole-5-carboxamide] | 164 nM
13 | COC1(Cc2ccccc2F)CCCC(NC(=O)c2ccc3[nH]nc(-c4ccnc(C)c4)c3c2)C1 (centres unmarked) [compound 40, N-[3-[(2-fluorophenyl)methyl]-3-methoxycyclohexyl]-3-(2-methyl-4-pyridinyl)-1H-indazole-5-carboxamide] | 205 nM
14 | Cc1nc2ccc(-c3n[nH]c4ccc(C(=O)N[C@@H]5CCC[C@](O)(Cc6c(F)cccc6F)C5)cc34)cn2n1 [compound 21, N-[3-(S)-[(2,6-difluorophenyl)methyl]-3-hydroxy-1(R)-cyclohexyl]-3-(2-methyl[1,2,4]triazolo[1,5-a]pyridin-6-yl)-1H-indazole-5-carboxamide] | 20.9 nM
15 | Cc1cc(-c2n[nH]c3ccc(C(=O)NC4CCCC(Cn5cc6cc(F)ccc6n5)C4)cc23)ccn1 (mixture of isomers) [compound 124, N-[cis/trans-3-[(5-fluoro-2H-indazol-2-yl)methyl]cyclohexyl]-3-(2-methyl-4-pyridinyl)-1H-indazole-5-carboxamide] | 264 nM
16 | COc1cccc(F)c1C[C@@]1(O)CCC[C@@H](NC(=O)c2ccc3[nH]nc(-c4ccc5nc(C)sc5c4)c3c2)C1 [compound 24, N-[3(S)-[(2-fluoro-6-methoxyphenyl)methyl]-3-hydroxy-1(R)-cyclohexyl]-3-(2-methyl-6-benzothiazolyl)-1H-indazole-5-carboxamide] | 8.9 nM

Second part, the compound after the results:

Row | IC50 | Structure (SMILES)
17 | 1000 nM | Cc1cc(-c2n[nH]c3ccc(C(=O)N[C@H]4CCC[C@@](O)(Cn5cc(C#N)c6ccccc65)C4)cc23)ccn1 (relative stereo) [compound 95, N-[trans-3-[(3-cyano-1H-indol-1-yl)methyl]-3-hydroxycyclohexyl]-3-(2-methyl-4-pyridinyl)-1H-indazole-5-carboxamide]
18 | 204 nM | Cc1cc(-c2n[nH]c3ccc(C(=O)NC4CCCC(O)(C(O)c5ccccc5)C4)cc23)ccn1 (centres unmarked) [compound 51, N-[3-hydroxy-3-(hydroxyphenylmethyl)cyclohex-yl]-3-(2-methyl-4-pyridinyl)-1H-indazole-5-carboxamide (diasterimer 3)]
19 | 332 nM | Cc1cc(-c2n[nH]c3ccc(C(=O)N[C@H]4CCC[C@](O)(Cn5c(C)nc6ccccc65)C4)cc23)ccn1 [compound 70]
20 | 1000 nM | Cc1cc(-c2n[nH]c3ccc(C(=O)N[C@@H]4CCCC(F)(Cc5ccccc5F)C4)cc23)ccn1 (single isomer, unassigned; isomer 1) [compound 55]
21 | 988 nM | Cc1cc(-c2n[nH]c3ccc(C(=O)N[C@@H]4CCC[C@](O)(Cn5ncc6ccccc65)C4)cc23)ccn1 [compound 65, N-[3(R)-hydroxy-3-(1H-indazol-1-ylmethyl)-1(R)-cyclohexyl]-3-(2-methyl-4-pyridinyl)-1H-indazole-5-carboxamide]
22 | 21.3 nM | Cc1cc(-c2n[nH]c3ccc(C(=O)N[C@H]4CCC[C@](O)(Cn5ncc6c(F)cccc65)C4)cc23)ccn1 (relative stereo) [compound 103, N-[cis-3-[(4-fluoro-1H-indazol-1-yl)methyl]-3-hydroxycyclohexyl]-3-(2-methyl-4-pyridinyl)-1H-indazole-5-carboxamide]
23 | 74.3 nM | Cc1cc(-c2n[nH]c3ccc(C(=O)N[C@H]4CCC[C@@](O)(Cn5ncc6cccc(F)c65)C4)cc23)ccn1 (relative stereo) [compound 104, N-[trans-3-[(7-fluoro-1H-indazol-1-yl)methyl]-3-hydroxycyclohexyl]-3-(2-methyl-4-pyridinyl)-1H-indazole-5-carboxamide]
24 | 464 nM | Cc1cc(-c2n[nH]c3ccc(C(=O)N[C@@H]4CCC[C@](O)(Cn5cnc6ncccc65)C4)cc23)ccn1 (relative stereo) [compound 71, N-[trans-3-hydroxy-3-(1H-imidazo[4,5-b]pyridin-1-ylmethyl)cyclohexyl]-3-(2-methyl-4-pyridinyl)-1H-indazole-5-carboxamide]
25 | 294 nM | Cc1cc(-c2n[nH]c3ccc(C(=O)NC4CCCC(O)(C(O)c5ccccc5)C4)cc23)ccn1 (centres unmarked) [compound 52, N-[3-hydroxy-3-(hydroxyphenylmethyl)cyclohex-yl]-3-(2-methyl-4-pyridinyl)-1H-indazole-5-carboxamide (diasterimer 4)]
26 | 151 nM | Cn1cc2cc(-c3n[nH]c4ccc(C(=O)N[C@@H]5CCC[C@@](O)(Cn6cccn6)C5)cc34)ccc2n1 (relative stereo) [compound 60, N-[cis-3-hydroxy-3-(1H-pyrazol-1-ylmethyl)cyclohexyl]-3-(2-methyl-2H-indazol-5-yl)-1H-indazole-5-carboxamide]
27 | 97.6 nM | Cc1cc(-c2n[nH]c3ccc(C(=O)N[C@@H]4CCC[C@@](O)(Cn5cnc6cccnc65)C4)cc23)ccn1 (relative stereo) [compound 82, N-[cis-3-hydroxy-3-(3H-imidazo[4,5-b]pyridin-3-ylmethyl)cyclohexyl]-3-(2-methyl-4-pyridinyl)-1H-indazole-5-carboxamide]
28 | 197 nM | Cc1cc(-c2n[nH]c3ccc(C(=O)N[C@@H]4CCC[C@](O)(Cn5cncn5)C4)cc23)ccn1 (relative stereo) [compound 63, N-[trans-3-hydroxy-3-(1H-1,2,4-triazol-1-ylmethyl)cyclohexyl]-3-(2-methyl-4-pyridinyl)-1H-indazole-5-carboxamide]
29 | 1000 nM | Cc1cc(-c2n[nH]c3ccc(C(=O)NC4CCCC(O)(Cc5c(F)cccc5F)C4)cc23)ccn1 (single isomer, unassigned) [compound 8, N-[3-[(2,6-difluorophenyl)methyl]-3-hydroxycyclohexyl]-3-(2-methyl-4-pyridinyl)-1H-indazole-5-carboxamide]

From patent US9351965B2, “Indazole derivatives useful as ERK inhibitors” (Merck Sharp & Dohme Corp., priority 2010, dated 2016)
